Data reported in patent US20070099983A1, “Aminocyclohexyl ether compounds and uses thereof” (Cardiome Pharma Corp., priority 2003, published 2007).

Tested on: conscious rats
Experiment: Determination of CNS toxicity: convulsions in conscious rats on increasing i.v. infusion
Assay type: in vivo
[1] = minimum i.v. infusion rate at which partial or complete convulsions are observed, conscious rats, maximum rate 64
[2] = total amount of drug infused when partial or complete convulsions are first observed, conscious rats

Q: For COc1ccc(CCOC2CCCC[C@H]2N2CCOCC2)cc1OC.Cl (stereo partly drawn) [Compound 8, 4-{(1R,2R)/(1S,2S)-2-[2-(3,4-dimethoxy-phenyl)ethoxy]cyclohexyl}morpholine hydrochloride], which cum conv dose (rat, in vivo) is on record?
A: The cum conv dose was 113 µmol/kg.

Q: What about the convulsion dose (rat, in vivo, iv) of the same compound?
A: Its convulsion dose is 16 µmol/kg/min.

Q: For c1ccc2cc(OCCO[C@H]3CCCCC3N3CCOCC3)ccc2c1 (stereo partly drawn) [Compound 33, (1R,2R)/(1S,2S)-[2-(4-morpholinyl)-1-[2-(2-naphthoxy)ethoxy]]-cyclohexane], which cum conv dose (rat, in vivo) is on record?
A: Its cum conv dose is 61.63 µmol/kg.

Q: What about the convulsion dose (rat, in vivo, iv) of the same compound?
A: The convulsion dose was 8 µmol/kg/min.

Q: Which results are given for COc1ccc(CCOC2CCCC[C@H]2N2CCN(C(=O)Cc3ccc(OC)c(OC)c3)CC2)cc1OC.Cl (stereo partly drawn) [Compound 22, 1-[(3,4-dimethoxyphenyl)acetyl]-4-{(1R,2R)/(1S,2S)-2-[2-(3,4-dimethoxyphenyl)-ethoxy]cyclohexyl}-piperazine hydrochloride]?
A: convulsion dose [1]: 21.33 µmol/kg/min; cum conv dose [2]: 133 µmol/kg

Q: Which convulsion dose [1] does the source give for COc1ccc(CCO[C@H]2CCCCC2N2CCC3(C2)OCCO3)cc1OC.Cl (stereo partly drawn) [Compound 9, 7-{(1R,2R)/(1S,2S)-2-[2-(3,4-dimethoxyphenyl)-ethoxy]cyclohexyl}-1,4-dioxa-7-azaspiro[4.4]nonane hydrochloride] here?
A: Its convulsion dose is 16 µmol/kg/min.

Q: And the cum conv dose [2]?
A: Its cum conv dose is 91.33 µmol/kg.

Q: Cl.OC1CCN([C@@H]2CCCC[C@@H]2OCCc2cccc3ccccc23)C1 (stereo partly drawn) [Compound 25, (3R)/(3S)-1-{(1R,2S)/(1S,2R)-2-[2-(1-naphthyl)ethoxy]-cyclohexyl}-pyrrolidin-3-ol hydrochloride] was tested. Which cum conv dose (rat, in vivo) did it give?
A: Its cum conv dose is 70 µmol/kg.

Q: What about the convulsion dose (rat, in vivo, iv) of the same compound?
A: The convulsion dose was 16 µmol/kg/min.

Q: For COc1ccc(CCO[C@H]2CCCCC2N2CCC[C@@H]2CO)cc1OC.Cl (stereo partly drawn) [Compound 15, {(2R)-1-{(1R,2R)/(1S,2S)-2-[2-(3,4-dimethoxyphenyl)-ethoxy]cyclohexyl}-pyrrolidin-2-yl}methanol hydrochloride], which cum conv dose (rat, in vivo) is on record?
A: The cum conv dose was 142.33 µmol/kg.

Q: What about the convulsion dose (rat, in vivo, iv) of the same compound?
A: Its convulsion dose is 16 µmol/kg/min.

Q: For COc1ccc(CCCO[C@H]2CCCCC2N2CCOCC2)cc1OC.Cl (stereo partly drawn) [Compound 19, 4-{(1R,2R)/(1S,2S)-2-[3-(3,4-dimethoxyphenyl)-propoxy]cyclohexyl}morpholine hydrochloride], which cum conv dose (rat, in vivo) is on record?
A: The cum conv dose was 109 µmol/kg.

Q: And the convulsion dose (rat, in vivo, iv)?
A: Its convulsion dose is 16 µmol/kg/min.

Q: Which cum conv dose (rat, in vivo) does the source give for COc1ccc(CCCCO[C@H]2CCCCC2N2CCOCC2)cc1OC.Cl (stereo partly drawn) [Compound 20, 4-{(1R,2R)/(1S,2S)-2-[4-(3,4-dimethoxyphenyl)-butoxy]cyclohexyl}morpholine hydrochloride] here?
A: Its cum conv dose is 66.8 µmol/kg.

Q: And the convulsion dose (rat, in vivo, iv)?
A: The convulsion dose was 10.7 µmol/kg/min.

Q: What does the source list for COc1ccc(CCO[C@@H]2CCCC[C@H]2N2CC[C@H](O)C2)cc1OC.Cl [Compound 6, (1R,2R)-2-[(3S)-Hydroxypyrrolidinyl]-1-(3,4-dimethoxyphenethoxy) cyclohexane monohydrochloride]?
A: cum conv dose (rat, in vivo): 472.24 µmol/kg; convulsion dose (rat, in vivo, iv): 64 µmol/kg/min

Q: Which results are given for Cl.O=C1CCN(C2CCCC[C@@H]2OCCc2c(Cl)cccc2Cl)C1 (stereo partly drawn) [Compound 41, (1R,2R)/(1S,2S)-2-(3-ketopyrrolidinyl)-1-(2,6-dichlorophenethoxy) cyclohexane monohydrochloride]?
A: cum conv dose (rat, in vivo): 190 µmol/kg; convulsion dose (rat, in vivo, iv): 32 µmol/kg/min

Q: Which cum conv dose (rat, in vivo) does the source give for Cl.O=C1CCN(C2CCCC[C@@H]2OCC(c2ccccc2)c2ccccc2)C1 (stereo partly drawn) [Compound 47, (1R,2R)/(1S,2S)-2-(3-ketopyrrolidinyl)-1-(2,2-diphenylethoxy)cyclo hexane monohydrochloride] here?
A: Its cum conv dose is 155 µmol/kg.

Q: What about the convulsion dose (rat, in vivo, iv) of the same compound?
A: The convulsion dose was 21 µmol/kg/min.

Q: How did the cum conv dose (rat, in vivo) turn out when Cl.OC1CCN(C2CCCC[C@@H]2OCCc2ccccc2Br)C1 (stereo partly drawn) [Compound 24, (3R)/(3S)-1-{(1R,2R)/(1S,2S)-2-[2-(2-bromophenyl)-ethoxy]cyclohexyl}-pyrrolidin-3-ol hydrochloride] was run?
A: The cum conv dose was 67 µmol/kg.

Q: What about the convulsion dose (rat, in vivo, iv) of the same compound?
A: Its convulsion dose is 13 µmol/kg/min.

Q: How did the cum conv dose (rat, in vivo) turn out when Brc1ccc(CCO[C@H]2CCCCC2N2CCOCC2)cc1 (some centres unmarked) [Compound 32] was run?
A: The cum conv dose was 91 µmol/kg.

Q: What about the convulsion dose (rat, in vivo, iv) of the same compound?
A: Its convulsion dose is 12 µmol/kg/min.
